This experiment concerns the target CDK4 (Homo sapiens, UniProt P11802+Q16531). The experiment can be described thus: CDK4 percentage degradation in Calu-1 cells (Table 6). Format: cell-based. Further details: Cells that express cyclin D1-3 and CDK4/6 proteins were treated with heterobifunctional compounds; endogenous in cells; host or cells: Calu-1. The note with it: 16 hours; for inhibition at 0.04 µM: 40 nM; for inhibition at 0.2 µM: 200 nM. The essentials: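 Percentage degradation of Cyclin D1 and CDK4 derived from densitometry of ECL Western blots on lysates of Calu-1 cells. Treatment was 16 h with compound at either 40 nM or 200 nM.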

Sequence of CDK4 (P11802 2-303 limits assumed): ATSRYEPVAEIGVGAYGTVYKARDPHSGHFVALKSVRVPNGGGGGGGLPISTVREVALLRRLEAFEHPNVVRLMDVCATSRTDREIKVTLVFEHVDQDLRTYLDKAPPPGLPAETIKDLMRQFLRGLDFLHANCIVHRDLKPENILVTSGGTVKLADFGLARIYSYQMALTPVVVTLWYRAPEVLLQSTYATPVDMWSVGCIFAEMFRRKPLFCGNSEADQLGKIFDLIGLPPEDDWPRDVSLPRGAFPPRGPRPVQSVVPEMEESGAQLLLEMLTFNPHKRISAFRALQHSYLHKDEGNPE
Sequence of CDK4 (P24385 whole entry partner): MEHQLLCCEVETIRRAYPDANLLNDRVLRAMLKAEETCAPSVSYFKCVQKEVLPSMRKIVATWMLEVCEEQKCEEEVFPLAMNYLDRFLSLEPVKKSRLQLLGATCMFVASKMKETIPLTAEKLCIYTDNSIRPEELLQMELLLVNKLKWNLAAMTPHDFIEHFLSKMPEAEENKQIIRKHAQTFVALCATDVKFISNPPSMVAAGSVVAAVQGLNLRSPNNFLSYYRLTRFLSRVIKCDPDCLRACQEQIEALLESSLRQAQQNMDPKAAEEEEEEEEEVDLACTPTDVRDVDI
Sequence of CDK4 (Q16531 2-1140 limits assumed): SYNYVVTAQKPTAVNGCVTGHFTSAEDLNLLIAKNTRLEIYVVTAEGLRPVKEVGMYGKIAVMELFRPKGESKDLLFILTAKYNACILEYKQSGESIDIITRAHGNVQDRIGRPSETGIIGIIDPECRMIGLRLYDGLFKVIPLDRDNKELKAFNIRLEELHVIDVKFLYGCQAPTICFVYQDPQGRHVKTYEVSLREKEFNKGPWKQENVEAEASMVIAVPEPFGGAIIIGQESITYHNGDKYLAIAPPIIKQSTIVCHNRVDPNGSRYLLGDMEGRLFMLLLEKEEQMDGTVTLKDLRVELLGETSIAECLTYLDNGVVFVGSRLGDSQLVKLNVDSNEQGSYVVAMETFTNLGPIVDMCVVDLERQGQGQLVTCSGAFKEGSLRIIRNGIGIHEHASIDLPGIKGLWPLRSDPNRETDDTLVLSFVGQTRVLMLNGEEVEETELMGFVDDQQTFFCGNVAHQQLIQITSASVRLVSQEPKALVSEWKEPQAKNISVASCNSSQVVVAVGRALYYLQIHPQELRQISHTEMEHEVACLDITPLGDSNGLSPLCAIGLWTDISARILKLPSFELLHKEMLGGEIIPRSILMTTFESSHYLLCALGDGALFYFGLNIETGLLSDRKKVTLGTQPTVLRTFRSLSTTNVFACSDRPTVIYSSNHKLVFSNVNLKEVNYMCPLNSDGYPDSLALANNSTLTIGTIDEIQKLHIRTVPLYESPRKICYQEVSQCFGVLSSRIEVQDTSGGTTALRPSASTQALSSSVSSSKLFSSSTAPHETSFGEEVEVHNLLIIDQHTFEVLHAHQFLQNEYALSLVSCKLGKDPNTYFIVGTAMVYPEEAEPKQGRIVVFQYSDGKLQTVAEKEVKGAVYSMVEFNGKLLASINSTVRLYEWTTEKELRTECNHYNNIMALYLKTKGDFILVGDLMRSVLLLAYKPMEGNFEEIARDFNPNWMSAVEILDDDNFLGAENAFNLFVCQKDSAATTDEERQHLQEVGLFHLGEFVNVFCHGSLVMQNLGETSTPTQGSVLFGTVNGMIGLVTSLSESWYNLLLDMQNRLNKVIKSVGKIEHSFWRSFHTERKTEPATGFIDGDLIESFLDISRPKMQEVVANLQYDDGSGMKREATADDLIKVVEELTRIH

Take `CNc1ccc(C(=O)Nc2ccc(Cl)c(C3CC3)n2)c(NCCCCCNC(=O)CN2CCN(c3ccc(Nc4ncc5c(C)c(C(C)=O)c(=O)n(C6CCCC6)c5n4)nc3)CC2)n1` [CPD-112, 2-((5-(2-(4-(6-((6-Acetyl-8-cyclopentyl-5-methyl-7-oxo-7,8-dihydropyrido[2,3-d]pyrimidin-2-yl)amino)pyridin-3-yl)piperazin-1-yl)acetamido)pentyl)amino)-N-(5-chloro-6-cyclopropylpyridin-2-yl)-6-(methylamino)nicotinamide]: the inhibition (usually the relative decrease from the control value, in per cent) at 0.04 µM is < 30% and the inhibition at 0.2 µM was < 30%.

For the compound `CNc1ccc(C(=O)Nc2ccc(N(C)C)nn2)c(NC[C@H]2CC[C@H](CCC(=O)N3CCN(c4ccc(Nc5ncc6c(C)c(C(C)=O)c(=O)n(C7CCCC7)c6n5)nc4)CC3)CC2)n1` [CPD-204, 2-(((trans-4-(3-(4-(6-((6-acetyl-8-cyclopentyl-S-methyl-7-oxo-7,8-dihydropyrido[2,3-d]pyrimidin-2-yl)amino)pyridin-3-yl)piperazin-1-yl)-3-oxopropyl)cyclohexyl)methyl)amino)-N-(6-(dimethylamino)pyridazin-3-yl)-6-(methylamino)nicotinamide], the inhibition at 0.04 µM was < 30% and the inhibition at 0.2 µM lay in the range of 50 to 80%.

Turning to `CNc1ccc(C(=O)N(C)c2ccc(N(C)C)nn2)c(NCCCCCNC(=O)CN2CCN(c3ccc(Nc4ncc5c(C)c(C(C)=O)c(=O)n(C6CCCC6)c5n4)nc3)CC2)n1` [CPD-71, 2-((5-(2-(4-(6-((6-acetyl-8-cyclopentyl-5-methyl-7-oxo-7,8-dihydropyrido[2,3-d]pyrimidin-2-yl)amino)pyridin-3-yl)piperazin-1-yl)acetamido)pentyl)amino)-N-(6-(dimethylamino)pyridazin-3-yl)-N-methyl-6-(methylamino)nicotinamide], the inhibition at 0.04 µM is < 30% and the inhibition at 0.2 µM is < 30%.

Regarding `CNc1ccc(C(=O)Nc2ccc(N(C)C)nn2)c(NCCCC2CN(C(=O)CN3CCN(c4ccc(Nc5ncc6c(C)c(C(C)=O)c(=O)n(C7CCCC7)c6n5)nc4)CC3)C2)n1` [CPD-102, 2-((3-(1-(2-(4-(6-((6-Acetyl-8-cyclopentyl-5-methyl-7-oxo-7,8-dihydropyrido[2,3-d]pyrimidin-2-yl)amino)pyridin-3-yl)piperazin-1-yl)acetyl)azetidin-3-yl)propyl)amino)-N-(6-(dimethylamino)pyridazin-3-yl)-6-(methylamino)nicotinamide], the inhibition at 0.04 µM fell in the range of 50 to 80% and the inhibition at 0.2 µM was 50 to 80%.

Consider `CNc1ccc(C(=O)NC2CC3(C2)CC(N(C)C)C3)c(NCCCCCNC(=O)CN2CCN(c3ccc(Nc4ncc5c(C)c(C(C)=O)c(=O)n(C6CCCC6)c5n4)nc3)CC2)n1` (stereo not drawn) [CPD-67, 2-((5-(2-(4-(6-((6-Acetyl-8-cyclopentyl-5-methyl-7-oxo-7,8-dihydropyrido[2,3-d]pyrimidin-2-yl)amino)pyridin-3-yl)piperazin-1-yl)acetamido)pentyl)amino)-N-(6-(dimethylamino)spiro[3.3]heptan-2-yl)-6-(methylamino)nicotinamide], for which the inhibition at 0.04 µM is < 30% and the inhibition at 0.2 µM was < 30%.

In the case of `CC(=O)c1c(C)c2cnc(Nc3ccc(N4CCN(CC(=O)NCCCCCNc5nc(C6CC6)ccc5C(=O)Nc5ccc(C)c(C6CC6)n5)CC4)cn3)nc2n(C2CCCC2)c1=O` [CPD-44, 2-((5-(2-(4-(6-((6-Acetyl-8-cyclopentyl-5-methyl-7-oxo-7,8-dihydropyrido[2,3-d]pyrimidin-2-yl)amino)pyridin-3-yl)piperazin-1-yl)acetamido)pentyl)amino)-6-cyclopropyl-N-(6-cyclopropyl-5-methylpyridin-2-yl)nicotinamide], the inhibition at 0.04 µM was < 30% and the inhibition at 0.2 µM fell in the range of 30 to 50%.

As for `CNc1ccc(C(=O)Nc2ccc(N(C)C)cc2)c(NCCCCCNC(=O)CN2CCN(c3ccc(Nc4ncc5c(C)c(C(C)=O)c(=O)n(C6CCCC6)c5n4)nc3)CC2)n1` [CPD-46, 2-((5-(2-(4-(6-((6-Acetyl-8-cyclopentyl-5-methyl-7-oxo-7,8-dihydropyrido[2,3-d]pyrimidin-2-yl)amino)pyridin-3-yl)piperazin-1-yl)acetamido)pentyl)amino)-N-(4-(dimethylamino)phenyl)-6-(methylamino)nicotinamide], the inhibition at 0.04 µM is < 30% and the inhibition at 0.2 µM is < 30%.

Consider `CNc1ccc(C(=O)Nc2cc(C3CC3)on2)c(NC2CC3(CC(NC(=O)CN4CCN(c5ccc(Nc6ncc7c(C)c(C(C)=O)c(=O)n(C8CCCC8)c7n6)nc5)CC4)C3)C2)n1` (stereo not drawn) [CPD-215, 2-((6-(2-(4-(6-((6-acetyl-8-cyclopentyl-5-methyl-7-oxo-7,8-dihydropyrido[2,3-d]pyrimidin-2-yl)amino)pyridin-3-yl)piperazin-1-yl)acetamido)spiro[3.3]heptan-2-yl)amino)-N-(5-cyclopropylisoxazol-3-yl)-6-(methylamino)nicotinamide], for which the inhibition at 0.04 µM is < 30% and the inhibition at 0.2 µM was < 30%.

With `CNc1ccc(C(=O)Nc2ccc(N(C)C)nn2)c(NC2CC3(CC(CCC(=O)N4CCN(c5ccc(Nc6ncc7c(C)c(C(C)=O)c(=O)n(C8CCCC8)c7n6)nc5)CC4)C3)C2)n1` (stereo not drawn) [CPD-82, 2-((6-(3-(4-(6-((6-Acetyl-8-cyclopentyl-5-methyl-7-oxo-7,8-dihydropyrido[2,3-d]pyrimidin-2-yl)amino)pyridin-3-yl)piperazin-1-yl)-3-oxopropyl)spiro[3.3]heptan-2-yl)amino)-N-(6-(dimethylamino)pyridazin-3-yl)-6-(methylamino)nicotinamide], the inhibition at 0.04 µM was in the range of 30 to 50% and the inhibition at 0.2 µM lay in the range of 30 to 50%.

`CNc1ccc(C(=O)Nc2ccc(N(C)C)nc2)c(NCCCCCNC(=O)CN2CCN(c3ccc(Nc4ncc5c(C)c(C(C)=O)c(=O)n(C6CCCC6)c5n4)nc3)CC2)n1` [CPD-58, 2-((5-(2-(4-(6-((6-Acetyl-8-cyclopentyl-5-methyl-7-oxo-7,8-dihydropyrido[2,3-d]pyrimidin-2-yl)amino)pyridin-3-yl)piperazin-1-yl)acetamido)pentyl)amino)-N-(6-(dimethylamino)pyridin-3-yl)-6-(methylamino)nicotinamide] registered an inhibition at 0.04 µM of 30 to 50% and an inhibition at 0.2 µM of 50 to 80%.

Regarding `CNc1ccc(C(=O)Nc2ccc(OC)nn2)c(NCCCCCNC(=O)CN2CCN(c3ccc(Nc4ncc5c(C)c(C(C)=O)c(=O)n(C6CCCC6)c5n4)nc3)CC2)n1` [CPD-108, 2-((5-(2-(4-(6-((6-Acetyl-8-cyclopentyl-5-methyl-7-oxo-7,8-dihydropyrido[2,3-d]pyrimidin-2-yl)amino)pyridin-3-yl)piperazin-1-yl)acetamido)pentyl)amino)-N-(6-methoxypyridazin-3-yl)-6-(methylamino)nicotinamide], the inhibition at 0.04 µM is 30 to 50% and the inhibition at 0.2 µM lay within 30 to 50%.

In the case of `CNc1ccc(C(=O)Nc2cccc(C3CC3)n2)c(NC2CC3(CC(NC(=O)CN4CCN(c5ccc(Nc6ncc7c(C)c(C(C)=O)c(=O)n(C8CCCC8)c7n6)nc5)CC4)C3)C2)n1` (stereo not drawn) [CPD-72, 2-((6-(2-(4-(6-((6-Acetyl-8-cyclopentyl-5-methyl-7-oxo-7,8-dihydropyrido[2,3-d]pyrimidin-2-yl)amino)pyridin-3-yl)piperazin-1-yl)acetamido)spiro[3.3]heptan-2-yl)amino)-N-(6-cyclopropylpyridin-2-yl)-6-(methylamino)nicotinamide], the inhibition at 0.04 µM was 50 to 80% and the inhibition at 0.2 µM is > 80%.

Source of the values: patent US20260297081A1, “COMPOUNDS AND METHODS OF TREATING CANCERS” (Cullgen Inc., priority 2023, published 2026).
